Experiments:
[1] = target: Human recombinant full-length GST-tagged RPS6KA2 (RSK3) (Homo sapiens (Human), UniProt Q15349); assay: Biochemical selectivity kinase assay (Z'-LYTE FRET), RSK3; conditions: for IC50: 10 μM ATP (~Km); for RSK3 IC50/HPK1 Ki: ratio of the RSK3 IC50 to the HPK1 Ki
Excerpt: (§1) Biochemical Selectivity Kinase Assay.
(§2) The dose response curve was curve fit to model number 205 (sigmoidal dose-response model). A ratio of the PRKD2 IC50 to the HPK1 Ki and a ratio of the RSK3 IC50 to the HPK1 Ki, is provided in the respective columns adjacent to the columns for PRKD2 IC50 and RSK3 IC50.

[2] = target: Human recombinant full-length GST-tagged PRKD2 (PKD2) (Homo sapiens (Human), UniProt Q9BZL6); assay: Biochemical selectivity kinase assay (Z'-LYTE FRET), PRKD2; conditions: for IC50: 25 μM ATP (~Km); for PRKD2 IC50/HPK1 Ki: ratio of the PRKD2 IC50 to the HPK1 Ki
Excerpt: as §1, §2

[3] = target: human full-length autophosphorylated recombinant HPK1 (Homo sapiens (Human), UniProt Q92918); assay: HPK1 biochemical enzyme assay (chelation-enhanced fluorescence, CHEF); conditions: 0.5 nM HPK1, 45 μM ATP, Morrison fit
In short: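 Autophosphorylated full-length human HPK1 from Sf21 cells, His-tag removed by TEV, residual N-terminal Gly-Ser. Activity measured with a C-Sox fluorescent peptide substrate (CHEF); initial velocities followed at λex 360/λem 500 nm, 30 °C for 15 min.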

[4] = tested on: Phospho-SLP-76 (Ser376) in Jurkat cells; assay: Phospho-SLP-76 (Ser376) HTRF assay in anti-CD3 stimulated Jurkat cells; type: cell-based; conditions: Homo sapiens, Jurkat, 30 min pre-treatment, anti-CD3 stimulation 15 min, read-out: pSLP76 IC50
In short: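 Jurkat cells pre-treated 30 min with compound (11-point 3-fold series, final 10 μM to 0.1 nM, 0.1% DMSO), then stimulated 15 min at 37° C with 200 μg/mL F(ab)2-complexed anti-CD3 (UCTH1). Lysate phospho-SLP-76 read by HTRF sandwich after overnight RT incubation; IC50 from four-parameter fit.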

Sequence of human full-length autophosphorylated recombinant HPK1 (Q92918 other isoform, or with tags, fused parts or gaps): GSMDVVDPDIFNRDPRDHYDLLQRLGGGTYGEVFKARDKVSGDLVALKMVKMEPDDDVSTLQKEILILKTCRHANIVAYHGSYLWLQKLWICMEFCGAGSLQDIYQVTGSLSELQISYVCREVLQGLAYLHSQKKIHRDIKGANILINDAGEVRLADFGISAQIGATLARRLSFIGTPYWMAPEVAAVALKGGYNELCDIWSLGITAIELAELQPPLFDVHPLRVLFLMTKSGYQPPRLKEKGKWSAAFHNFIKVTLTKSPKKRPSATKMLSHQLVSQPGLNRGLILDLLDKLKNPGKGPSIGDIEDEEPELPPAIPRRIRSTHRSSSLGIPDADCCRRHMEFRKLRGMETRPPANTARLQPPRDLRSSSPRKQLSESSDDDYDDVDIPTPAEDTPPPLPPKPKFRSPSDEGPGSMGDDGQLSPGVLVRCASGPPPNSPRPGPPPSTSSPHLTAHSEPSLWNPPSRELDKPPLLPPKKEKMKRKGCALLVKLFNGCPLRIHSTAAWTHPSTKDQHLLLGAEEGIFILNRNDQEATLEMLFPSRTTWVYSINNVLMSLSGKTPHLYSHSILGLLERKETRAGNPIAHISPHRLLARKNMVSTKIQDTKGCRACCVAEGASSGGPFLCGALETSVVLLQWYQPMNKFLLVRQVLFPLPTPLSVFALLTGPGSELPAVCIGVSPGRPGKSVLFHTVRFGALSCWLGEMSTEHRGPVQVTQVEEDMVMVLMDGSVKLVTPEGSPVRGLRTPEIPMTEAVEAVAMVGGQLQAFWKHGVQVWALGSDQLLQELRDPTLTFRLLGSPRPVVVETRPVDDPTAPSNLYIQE
Sequence of Human recombinant full-length GST-tagged PRKD2 (PKD2) (Q9BZL6 whole entry): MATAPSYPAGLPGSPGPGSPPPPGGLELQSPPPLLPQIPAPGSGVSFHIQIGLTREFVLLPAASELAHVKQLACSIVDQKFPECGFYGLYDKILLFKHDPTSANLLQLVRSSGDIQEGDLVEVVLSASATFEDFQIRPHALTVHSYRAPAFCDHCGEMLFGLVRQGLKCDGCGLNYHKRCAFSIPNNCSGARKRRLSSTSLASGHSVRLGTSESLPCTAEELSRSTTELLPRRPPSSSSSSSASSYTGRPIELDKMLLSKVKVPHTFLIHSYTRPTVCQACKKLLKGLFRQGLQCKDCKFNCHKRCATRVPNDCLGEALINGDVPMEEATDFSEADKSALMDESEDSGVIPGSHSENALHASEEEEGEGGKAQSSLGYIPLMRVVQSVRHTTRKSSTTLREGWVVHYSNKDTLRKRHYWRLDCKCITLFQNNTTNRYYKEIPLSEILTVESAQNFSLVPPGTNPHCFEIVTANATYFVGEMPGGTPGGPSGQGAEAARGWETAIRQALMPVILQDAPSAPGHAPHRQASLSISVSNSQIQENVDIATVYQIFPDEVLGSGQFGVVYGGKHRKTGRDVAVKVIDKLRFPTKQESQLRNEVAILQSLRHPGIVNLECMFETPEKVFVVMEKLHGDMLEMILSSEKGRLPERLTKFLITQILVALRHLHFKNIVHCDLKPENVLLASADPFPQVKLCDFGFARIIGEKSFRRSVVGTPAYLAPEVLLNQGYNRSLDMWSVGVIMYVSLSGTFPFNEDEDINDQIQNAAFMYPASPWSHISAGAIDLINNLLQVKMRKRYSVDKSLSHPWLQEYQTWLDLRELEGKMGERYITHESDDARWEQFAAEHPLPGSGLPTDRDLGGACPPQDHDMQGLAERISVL
Sequence of Human recombinant full-length GST-tagged RPS6KA2 (RSK3) (Q15349 whole entry): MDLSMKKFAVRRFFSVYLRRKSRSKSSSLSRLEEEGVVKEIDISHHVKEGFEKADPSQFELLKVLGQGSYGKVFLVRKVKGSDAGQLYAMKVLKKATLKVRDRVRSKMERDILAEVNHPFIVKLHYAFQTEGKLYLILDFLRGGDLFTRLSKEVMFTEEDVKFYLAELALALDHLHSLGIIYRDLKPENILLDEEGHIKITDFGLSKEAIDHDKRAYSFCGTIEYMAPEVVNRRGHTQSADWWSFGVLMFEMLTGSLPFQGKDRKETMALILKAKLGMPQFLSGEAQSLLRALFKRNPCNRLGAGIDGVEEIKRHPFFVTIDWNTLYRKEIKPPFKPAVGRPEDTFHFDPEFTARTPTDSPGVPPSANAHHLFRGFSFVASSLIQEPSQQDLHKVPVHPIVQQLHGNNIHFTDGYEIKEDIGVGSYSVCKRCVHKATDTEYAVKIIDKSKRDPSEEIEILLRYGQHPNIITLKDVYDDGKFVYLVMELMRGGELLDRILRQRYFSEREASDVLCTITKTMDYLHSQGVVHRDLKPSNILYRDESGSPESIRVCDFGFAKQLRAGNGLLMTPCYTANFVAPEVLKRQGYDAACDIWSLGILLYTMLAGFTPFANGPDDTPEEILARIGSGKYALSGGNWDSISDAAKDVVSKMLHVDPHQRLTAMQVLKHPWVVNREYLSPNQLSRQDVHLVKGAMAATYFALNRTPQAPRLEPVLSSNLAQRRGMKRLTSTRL

Structure (SMILES)	IC50 [1] [nM]	IC50 [2] [nM]	RSK3 IC50/HPK1 Ki [1]	Ki [3] [nM]	IC50 [4] [nM]	PRKD2 IC50/HPK1 Ki [2]
CC[C@@H](N)c1nc(N2CCC[C@H]2C)cc2c1CN(c1cccc(-c3nnc4n3[C@@H](C)CC4)n1)C2=O [Example 1, 4-[(1R)-1-aminopropyl]-2-{6-[(5S)-5-methyl-6,7-dihydro-5H-pyrrolo[2,1-c][1,2,4]triazol-3-yl]pyridin-2-yl}-6-[(2R)-2-methylpyrrolidin-1-yl]-2,3-dihydro-1H-pyrrolo[3,4-c]pyridin-1-one]	47	155	–	–	–	–
CC[C@H]1CCc2nnc(-c3cccc(N4Cc5c(cc(N6CCC[C@H]6C)nc5[C@@H](C)N)C4=O)n3)n21 [Example 2, 4-[(1R)-1-aminoethyl]-2-{6-[(5S)-5-ethyl-6,7-dihydro-5H-pyrrolo[2,1-c][1,2,4]triazol-3-yl]pyridin-2-yl}-6-[(2R)-2-methylpyrrolidin-1-yl]-2,3-dihydro-1H-pyrrolo[3,4-c]pyridin-1-one]	21.3	116	>420	< 0.05	30	>2320
CC[C@H]1CCc2nnc(-c3cccc(N4Cc5c(cc(N6CCC[C@H]6C)nc5[C@H](C)N)C4=O)n3)n21 [Example 3, 4-[(1S)-1-aminoethyl]-2-{6-[(5S)-5-ethyl-6,7-dihydro-5H-pyrrolo[2,1-c][1,2,4]triazol-3-yl]pyridin-2-yl}-6-[(2R)-2-methylpyrrolidin-1-yl]-2,3-dihydro-1H-pyrrolo[3,4-c]pyridin-1-one]	3.33	6.54	>66	< 0.05	34	>130
CCn1cnnc1-c1cccc(N2Cc3c(cc(C4(C)CC4)nc3[C@H](C)N)C2=O)n1 [Example 116, 4-[(1S)-1-aminoethyl]-2-[6-(4-ethyl-4H-1,2,4-triazol-3-yl)pyridin-2-yl]-6-(1-methylcyclo-propyl)-2,3-dihydro-1H-pyrrolo[3,4-c]pyridin-1-one]	–	–	–	0.64	214	–
CCN(C)c1cc2c(c(C(C)(C)N)n1)CN(c1cccc(-c3nnc(C)n3CC)n1)C2=O [Example 123, 4-(2-aminopropan-2-yl)-6-[ethyl(methyl)amino]-2-[6-(4-ethyl-5-methyl-4H-1,2,4-triazol-3-yl)pyridin-2-yl]-2,3-dihydro-1H-pyrrolo[3,4-c]pyridin-1-one]	–	–	–	0.97	243	–
CCN(C)c1cc2c(c(C(C)(C)N)n1)CN(c1cccc(-c3nncn3CC)n1)C2=O [Example 124, 4-(2-aminopropan-2-yl)-6-[ethyl(methyl)amino]-2-[6-(4-ethyl-4H-1,2,4-triazol-3-yl)pyridin-2-yl]-2,3-dihydro-1H-pyrrolo[3,4-c]pyridin-1-one]	–	–	–	0.37	98	–
CCCn1cnnc1-c1cccc(N2Cc3c(cc(N(C)C)nc3C(C)(C)N)C2=O)n1 [Example 131, 4-(2-aminopropan-2-yl)-6-(dimethyl-amino)-2-[6-(4-propyl-4H-1,2,4-triazol-3-yl)pyridin-2-yl]-2,3-dihydro-1H-pyrrolo[3,4-c]pyridin-1-one]	–	–	–	1.02	94	–
CCn1cnnc1-c1cccc(N2Cc3c(cc(N(C)C)nc3C(C)(C)N)C2=O)n1 [Example 132, 4-(2-aminopropan-2-yl)-6-(dimethyl-amino)-2-[6-(4-ethyl-4H-1,2,4-triazol-3-yl)pyridin-2-yl]-2,3-dihydro-1H-pyrrolo[3,4-c]pyridin-1-one]	–	–	–	0.38	148	–
CCCn1c(C)nnc1-c1cccc(N2Cc3c(cc(N4CCC[C@H]4C)nc3C(C)(C)N)C2=O)n1 [Example 133, 4-(2-aminopropan-2-yl)-2-[6-(5-methyl-4-propyl-4H-1,2,4-triazol-3-yl)pyridin-2-yl]-6-[(2R)-2-methylpyrroli-din-1-yl]-2,3-dihydro-1H-pyrrolo[3,4-c]pyridin-1-one]	–	–	–	0.12	95	–
CCn1c(C)nnc1-c1cccc(N2Cc3c(cc(N4CCC[C@H]4C)nc3C(C)(C)N)C2=O)n1 [Example 134, 4-(2-aminopropan-2-yl)-2-[6-(4-ethyl-5-methyl-4H-1,2,4-triazol-3-yl)pyridin-2-yl]-6-[(2R)-2-methylpyrroli-din-1-yl]-2,3-dihydro-1H-pyrrolo[3,4-c]pyridin-1-one]	–	–	–	0.22	106	–
CCCn1c(C)nnc1-c1cccc(N2Cc3c(cc(N(C)C(C)C)nc3C(C)(C)N)C2=O)n1 [Example 139, 4-(2-amino-propan-2-yl)-6-[methyl (propan-2-yl)amino]-2-[6-(5-methyl-4-propyl-4H-1,2,4-triazol-3-yl)pyridin-2-yl]-2,3-dihydro-1H-pyrrolo[3,4-c]pyridin-1-one]	–	–	–	0.27	104	–
CC[C@@H](N)c1nc(N2CCC[C@H]2C)cc2c1CN(c1cccc(-c3nncn3CC)n1)C2=O [Example 140, 4-[(1R)-1-aminopropyl]-2-[6-(4-ethyl-4H-1,2,4-triazol-3-yl)pyridin-2-yl]-6-[(2R)-2-methylpyrroli-din-1-yl]-2,3-dihydro-1H-pyrrolo[3,4-c]pyridin-1-one]	–	–	–	< 0.07	53	–
CCCn1cnnc1-c1cccc(N2Cc3c(cc(N4CCC[C@H]4C)nc3[C@H](N)CC)C2=O)n1 [Example 144, 4-[(1R)-1-aminopropyl]-6-[(2R)-2-methylpyrroli-din-1-yl]-2-[6-(4-propyl-4H-1,2,4-triazol-3-yl)pyridin-2-yl]-2,3-dihydro-1H-pyrrolo[3,4-c]pyridin-1-one]	–	–	–	0.11	90	–
CC[C@@H]1CCc2nnc(-c3cccc(N4Cc5c(cc(N6CCC[C@H]6C)nc5CNC)C4=O)n3)n21 [Example 203, 2-{6-[(5R)-5-ethyl-6,7-dihydro-5H-pyrrolo[2,1-c] [1,2,4]triazol-3-yl]pyridin-2-yl}-4-[(methyl-amino)methyl]-6-[(2R)-2-methylpyrroli-din-1-yl]-2,3-dihydro-1H-pyrrolo[3,4-c] pyridin-1-one]	–	–	–	1.04	182	–
CNCc1nc(N(C)C(C)C)cc2c1CN(c1cccc(-c3nnc4n3[C@@H](CF)CC4)n1)C2=O [Example 205, 2-{6-[(5R)-5-(fluoromethyl)-6,7-dihydro-5H-pyrrolo[2,1-c][1,2,4]triazol-3-yl]pyridin-2-yl}-4-[(methyl-amino)methyl]-6-[methyl (propan-2-yl)amino]-2,3-dihydro-1H-pyrrolo[3,4-c] pyridin-1-one]	–	–	–	< 0.05	52	–
CC[C@H]1CCc2nnc(-c3cccc(N4Cc5c(cc(N(C)C)nc5CNC)C4=O)n3)n21 [Example 206, 6-(dimethyl-amino)-2-{6-[(5S)-5-ethyl-6,7-dihydro-5H-pyrrolo[2,1-c] [1,2,4]triazol-3-yl]pyridin-2-yl}-4-[(methyl-amino)methyl]-2,3-dihydro-1H-pyrrolo[3,4-c] pyridin-1-one]	–	–	–	0.12	78	–
CNCc1nc(N(C)C)cc2c1CN(c1cccc(-c3nnc4n3[C@@H](C)CC4)n1)C2=O [Example 208, 6-(dimethyl-amino)-4-[(methylamino)methyl]-2-{6-[(5S)-5-methyl-6,7-dihydro-5H-pyrrolo[2,1-c] [1,2,4]triazol-3-yl]pyridin-2-yl}-2,3-dihydro-1H-pyrrolo[3,4-c] pyridin-1-one]	–	–	–	0.6	85	–
CNCc1nc(N(C)C(C)C)cc2c1CN(c1cccc(-c3nnc4n3[C@@H](C)CC4)n1)C2=O [Example 210, 4-[(methyl-amino)methyl]-2-{6-[(5S)-5-methyl-6,7-dihydro-5H-pyrrolo[2,1-c] [1,2,4]triazol-3-yl]pyridin-2-yl}-6-[methyl (propan-2-yl)amino]-2,3-dihydro-1H-pyrrolo[3,4-c] pyridin-1-one]	–	–	–	< 0.05	47	–
CNCc1nc(N(C)C(C)C)cc2c1CN(c1cccc(-c3nnc4n3[C@@H](C)C[C@@H]4C)n1)C2=O [Example 211, 2-{6-[(5S,7S)-5,7-dimethyl-6,7-dihydro-5H-pyrrolo[2,1-c] [1,2,4]triazol-3-yl]pyridin-2-yl}-4-[(methyl-amino)methyl]-6-[methyl (propan-2-yl)amino]-2,3-dihydro-1H-pyrrolo[3,4-c] pyridin-1-one]	–	–	–	< 0.05	78	–
CNCc1nc(N(C)C(C)C)cc2c1CN(c1cccc(-c3nnc4n3[C@@H](C)C[C@H]4C)n1)C2=O [Example 212, 2-{6-[(5S,7R)-5,7-dimethyl-6,7-dihydro-5H-pyrrolo[2,1-c] [1,2,4]triazol-3-yl]pyridin-2-yl}-4-[(methyl-amino)methyl]-6-[methyl (propan-2-yl)amino]-2,3-dihydro-1H-pyrrolo[3,4-c] pyridin-1-one]	–	–	–	0.32	159	–
CCCn1cnnc1-c1cccc(N2Cc3c(cc(N(C)C)nc3CNC)C2=O)n1 [Example 300, 6-(dimethylamino)-4-[(methylamino)methyl]-2-[6-(4-propyl-4H-1,2,4-triazol-3-yl)pyridin-2-yl]-2,3-dihydro-1H-pyrrolo[3,4-c]pyridin-1-one]	6.26	1.93	23	–	94	14

Reference: patent US11684616B2, “Azalactam compounds as HPK1 inhibitors” (PFIZER INC., priority 2020, dated 2023)
